Source: patent US20090018134A1, “Compounds - 945” (AstraZeneca AB, priority 2007, published 2009)

biological target: T1, mTOR (Homo sapiens, UniProt P42345); assay: In Vitro mTOR Kinase Assay (Echo), Test (a)(ii); assay type: biochemical; details: read-out: mTOR Kinase Assay (Echo)
T1 construct: FLAG; made in house
Description: (a)(ii) In Vitro mTOR Kinase Assay (Echo)
The assay used AlphaScreen technology (Gray et al., Analytical Biochemistry, 2003, 313: 234-245) to determine the ability of test compounds to inhibit phosphorylation by recombinant mTOR.
A C-terminal truncation of mTOR encompassing amino acid residues 1362 to 2549 of mTOR (EMBL Accession No. L34075) was stably expressed as a FLAG-tagged fusion in HEK293 cells as described by Vilella-Bach et al., […], 1999, 274, 4266-4272. The HEK293 FLAG-tagged mTOR (1362-2549) stable cell line was routinely maintained at 37° C. with 5% CO2 up to a confluency of 70-90% in Dulbecco's modified Eagle's growth medium (DMEM; Invitrogen Limited, Paisley, UK Catalogue No. 41966-029) containing 10% heat-inactivated foetal calf serum (FCS; Sigma, Poole, Dorset, UK, Catalogue No. F0392), 1% L-glutamine (Gibco, Catalogue No. 25030-024) and 2 mg/ml Geneticin (G418 sulfate; Invitrogen Limited, UK Catalogue No. 1013 1-027). Following expression in the mammalian HEK293 cell line, expressed protein was purified using the FLAG epitope tag using standard purification techniques.
Aliquots (120 nl […]) of each compound dilution were acoustically dispensed placed using a Labcyte Echo 550 into a well of a Greiner 384-well low volume (LV) white polystyrene plate (Greiner Bio-one).
These assay solutions were incubated for 2 hours at room temperature.
Each reaction was stopped by the addition of […] of a mixture of EDTA (50 mM), bovine serum albumin (BSA; 0.5 mg/mL) and Tris-HCl pH 7.4 buffer (50 mM) containing p70 S6 Kinase (T389) 1A5 Monoclonal Antibody (Cell Signalling Technology, Catalogue No. 9206B) and AlphaScreen Streptavidin donor and Protein A acceptor beads (200 ng; Perkin Elmer, Catalogue No. 6760002B and 6760137R respectively) were added and the assay plates were left overnight at room temperature in the dark. The resultant signals arising from laser light excitation at 680 nm were read using a Packard Envision instrument.
The phosphorylated biotinylated peptide that is associated with AlphaScreen Streptavidin donor beads forms a complex with the p70 S6 Kinase (T389) 1A5 Monoclonal Antibody that is associated with Alphascreen Protein A acceptor beads. Upon laser light excitation at 680 nm, the donor bead: acceptor bead complex produces a signal that can be measured. Accordingly, the presence of mTOR kinase activity results in an assay signal. In the presence of an mTOR kinase inhibitor, signal strength is reduced.
mTOR enzyme inhibition for a given test compound was expressed as an IC50 value.

T1 sequence (P42345 1362-2549): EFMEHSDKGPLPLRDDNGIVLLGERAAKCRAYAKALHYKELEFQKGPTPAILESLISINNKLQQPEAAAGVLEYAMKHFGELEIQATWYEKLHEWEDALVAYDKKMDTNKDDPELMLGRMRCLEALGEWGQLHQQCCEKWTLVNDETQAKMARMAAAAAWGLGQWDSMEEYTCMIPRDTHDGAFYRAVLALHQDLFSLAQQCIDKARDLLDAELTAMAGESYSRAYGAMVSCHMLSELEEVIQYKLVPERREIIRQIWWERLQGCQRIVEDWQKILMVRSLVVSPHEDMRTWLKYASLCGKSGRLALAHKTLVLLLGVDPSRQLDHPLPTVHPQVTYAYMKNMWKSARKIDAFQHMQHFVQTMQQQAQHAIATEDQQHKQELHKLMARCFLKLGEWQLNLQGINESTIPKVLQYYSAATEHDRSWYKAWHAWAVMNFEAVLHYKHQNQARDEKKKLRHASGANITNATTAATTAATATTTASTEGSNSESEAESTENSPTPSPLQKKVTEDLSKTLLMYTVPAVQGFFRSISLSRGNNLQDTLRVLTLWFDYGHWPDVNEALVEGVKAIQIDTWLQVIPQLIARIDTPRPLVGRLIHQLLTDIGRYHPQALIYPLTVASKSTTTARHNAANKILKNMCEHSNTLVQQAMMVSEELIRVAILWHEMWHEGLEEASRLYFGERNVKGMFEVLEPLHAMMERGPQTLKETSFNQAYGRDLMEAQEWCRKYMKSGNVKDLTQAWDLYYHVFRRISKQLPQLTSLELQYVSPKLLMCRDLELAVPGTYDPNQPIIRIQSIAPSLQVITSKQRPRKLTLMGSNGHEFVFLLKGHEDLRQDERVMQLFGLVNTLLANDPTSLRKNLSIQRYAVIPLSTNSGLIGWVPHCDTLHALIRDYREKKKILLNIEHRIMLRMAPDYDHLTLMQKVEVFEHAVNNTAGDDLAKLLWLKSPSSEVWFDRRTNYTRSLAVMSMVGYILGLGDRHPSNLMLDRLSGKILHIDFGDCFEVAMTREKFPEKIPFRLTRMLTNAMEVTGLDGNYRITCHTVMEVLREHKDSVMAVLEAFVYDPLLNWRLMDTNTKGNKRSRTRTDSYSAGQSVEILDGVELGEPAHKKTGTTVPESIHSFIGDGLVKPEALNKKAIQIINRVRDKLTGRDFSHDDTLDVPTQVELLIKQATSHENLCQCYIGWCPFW

SMILES | IC50 [nM]
C[C@H]1COCCN1c1cc(C2(S(=O)(=O)C3CC3)CC2)nc(-c2ccc(NC(=O)NC(C)(C)CO)cc2)n1 [Example 3k, 1-[4-[4-(1-cyclopropylsulfonylcyclopropyl)-6-[(3S)-3-methylmorpholin-4-yl]pyrimidin-2-yl]phenyl]-3-(1-hydroxy-2-methyl-propan-2-yl)urea] | 2.27
C[C@H]1COCCN1c1cc(C2(S(=O)(=O)C3CC3)CC2)nc(-c2ccc(NC(=O)NCCCO)cc2)n1 [Example 3l, 1-[4-[4-(1-cyclopropylsulfonylcyclopropyl)-6-[(3S)-3-methylmorpholin-4-yl]pyrimidin-2-yl]phenyl]-3-(3-hydroxypropyl)urea] | 2.57
C[C@H]1COCCN1c1cc(C2(S(=O)(=O)C3CC3)CC2)nc(-c2ccc(NC(=O)Nc3cnn(C)c3)cc2)n1 [Example 3m, 1-[4-[4-(1-cyclopropylsulfonylcyclopropyl)-6-[(3S)-3-methylmorpholin-4-yl]pyrimidin-2-yl]phenyl]-3-(1-methylpyrazol-4-yl)urea] | 0.497
C[C@H]1COCCN1c1cc(C2(S(=O)(=O)C3CC3)CC2)nc(-c2ccc(NC(=O)NCC(C)(C)CO)cc2)n1 [Example 3n, 1-[4-[4-(1-cyclopropylsulfonylcyclopropyl)-6-[(3S)-3-methylmorpholin-4-yl]pyrimidin-2-yl]phenyl]-3-(3-hydroxy-2,2-dimethylpropyl)urea] | 39.6
C[C@H]1COCCN1c1cc(C2(S(=O)(=O)C3CC3)CC2)nc(-c2ccc(NC(=O)NCCC#N)cc2)n1 [Example 3o, 3-(2-cyanoethyl)-1-[4-[4-(1-cyclopropylsulfonylcyclopropyl)-6-[(3S)-3-methylmorpholin-4-yl]pyrimidin-2-yl]phenyl]urea] | 5.96
C[C@H]1COCCN1c1cc(C2(S(=O)(=O)C3CC3)CC2)nc(-c2ccc(NC(=O)NCCN3CCCC3)cc2)n1 [Example 3p, 1-[4-[4-(1-cyclopropylsulfonylcyclopropyl)-6-[(3S)-3-methylmorpholin-4-yl]pyrimidin-2-yl]phenyl]-3-(2-pyrrolidin-1-ylethyl)urea] | 193
C[C@H]1COCCN1c1cc(C2(S(=O)(=O)C3CC3)CC2)nc(-c2ccc(NC(=O)NCC(O)C(F)(F)F)cc2)n1 (stereo partly drawn) [Example 3q, 1-[4-[4-(1-cyclopropylsulfonylcyclopropyl)-6-[(3S)-3-methylmorpholin-4-yl]pyrimidin-2-yl]phenyl]-3-(3,3,3-trifluoro-2-hydroxypropyl)urea] | 8.39
C[C@H]1COCCN1c1cc(C2(S(=O)(=O)C3CC3)CC2)nc(-c2ccc(NC(=O)NCC(C)(C)O)cc2)n1 [Example 3r, 1-[4-[4-(1-cyclopropylsulfonylcyclopropyl)-6-[(3S)-3-methylmorpholin-4-yl]pyrimidin-2-yl]phenyl]-3-(2-hydroxy-2-methylpropyl)urea] | 48.8
C[C@H]1COCCN1c1cc(C2(S(=O)(=O)C3CC3)CC2)nc(-c2ccc(NC(=O)NC3(CO)CC3)cc2)n1 [Example 3s, 1-[4-[4-(1-cyclopropylsulfonylcyclopropyl)-6-[(3S)-3-methylmorpholin-4-yl]pyrimidin-2-yl]phenyl]-3-[1-(hydroxymethyl)cyclopropyl]urea] | 26.3
C[C@H]1COCCN1c1cc(C2(S(=O)(=O)C3CC3)CC2)nc(-c2ccc(NC(=O)NC3COC3)cc2)n1 [Example 3t, 1-[4-[4-(1-cyclopropylsulfonylcyclopropyl)-6-[(3S)-3-methylmorpholin-4-yl]pyrimidin-2-yl]phenyl]-3-(oxetan-3-yl)urea] | 4.79
C[C@H]1COCCN1c1cc(C2(S(=O)(=O)C3CC3)CC2)nc(-c2ccc(NC(=O)Nc3ccn(C)n3)cc2)n1 [Example 3u, 1-[4-[4-(1-cyclopropylsulfonylcyclopropyl)-6-[(3S)-3-methylmorpholin-4-yl]pyrimidin-2-yl]phenyl]-3-(1-methylpyrazol-3-yl)urea] | 0.604
C[C@H]1COCCN1c1cc(C2(S(=O)(=O)C3CC3)CC2)nc(-c2ccc(NC(=O)Nc3ncns3)cc2)n1 [Example 3w, 1-[4-[4-(1-cyclopropylsulfonylcyclopropyl)-6-[(3S)-3-methylmorpholin-4-yl]pyrimidin-2-yl]phenyl]-3-(1,2,4-thiadiazol-5-yl)urea] | 0.89
CNC(=O)Nc1ccc(-c2nc(N3CCOC[C@@H]3C)cc(C3(S(C)(=O)=O)CCCC3)n2)cc1 [Example 4, 3-Methyl-1-[4-[4-[(3S)-3-methylmorpholin-4-yl]-6-(1-methylsulfonylcyclopentyl)pyrimidin-2-yl]phenyl]urea] | 0.699

Results, then the compound that gave them:

IC50 [nM] | SMILES
2.16 | CCNC(=O)Nc1ccc(-c2nc(N3CCOC[C@@H]3C)cc(C3(S(C)(=O)=O)CCCC3)n2)cc1 [Example 4a, 3-ethyl-1-[4-[4-[(3S)-3-methylmorpholin-4-yl]-6-(1-methylsulfonylcyclopentyl)pyrimidin-2-yl]phenyl]urea]
16.9 | CC(C)NC(=O)Nc1ccc(-c2nc(N3CCOC[C@@H]3C)cc(C3(S(C)(=O)=O)CCCC3)n2)cc1 [Example 4c, 1-[4-[4-[(3S)-3-methylmorpholin-4-yl]-6-(1-methylsulfonylcyclopentyl)pyrimidin-2-yl]phenyl]-3-propan-2-yl-urea]
10 | C[C@H]1COCCN1c1cc(C2(S(C)(=O)=O)CCCC2)nc(-c2ccc(NC(=O)NC3CCC3)cc2)n1 [Example 4d, 3-cyclobutyl-1-[4-[4-[(3S)-3-methylmorpholin-4-yl]-6-(1-methylsulfonylcyclopentyl)pyrimidin-2-yl]phenyl]urea]
1.19 | C[C@H]1COCCN1c1cc(C2(S(C)(=O)=O)CCCC2)nc(-c2ccc(NC(=O)NCCO)cc2)n1 [Example 4e, 3-(2-hydroxyethyl)-1-[4-[4-[(3S)-3-methylmorpholin-4-yl]-6-(1-methylsulfonylcyclopentyl)pyrimidin-2-yl]phenyl]urea]
10 | C[C@H]1COCCN1c1cc(C2(S(C)(=O)=O)CCCC2)nc(-c2ccc(NC(=O)NC(C)(C)CO)cc2)n1 [Example 4f, 3-(1-hydroxy-2-methyl-propan-2-yl)-1-[4-[4-[(3S)-3-methylmorpholin-4-yl]-6-(1-methylsulfonylcyclopentyl)pyrimidin-2-yl]phenyl]urea]
62.6 | C[C@H]1COCCN1c1cc(C2(S(C)(=O)=O)CCCC2)nc(-c2ccc(NC(=O)NCCN(C)C)cc2)n1 [Example 4g, 3-(2-dimethylaminoethyl)-1-[4-[4-[(3S)-3-methylmorpholin-4-yl]-6-(1-methylsulfonylcyclopentyl)pyrimidin-2-yl]phenyl]urea]
1.57 | CCCNC(=O)Nc1ccc(-c2nc(N3CCOC[C@@H]3C)cc(C3(S(C)(=O)=O)CCCC3)n2)cc1 [Example 4h, 1-[4-[4-[(3S)-3-methylmorpholin-4-yl]-6-(1-methylsulfonylcyclopentyl)pyrimidin-2-yl]phenyl]-3-propyl-urea]
11.5 | CC(C)CNC(=O)Nc1ccc(-c2nc(N3CCOC[C@@H]3C)cc(C3(S(C)(=O)=O)CCCC3)n2)cc1 [Example 4i, 1-[4-[4-[(3S)-3-methylmorpholin-4-yl]-6-(1-methylsulfonylcyclopentyl)pyrimidin-2-yl]phenyl]-3-(2-methylpropyl)urea]
4.61 | C[C@H]1COCCN1c1cc(C2(S(C)(=O)=O)CCCC2)nc(-c2ccc(NC(=O)NCCCO)cc2)n1 [Example 4j, 3-(3-hydroxypropyl)-1-[4-[4-[(3S)-3-methylmorpholin-4-yl]-6-(1-methylsulfonylcyclopentyl)pyrimidin-2-yl]phenyl]urea]

same assay, conditions: table of enzyme assay Test (a)(ii); read-out: Test (a)(ii) IC50

IC50 [nM] | SMILES
2.17 | CCNC(=O)Nc1ccc(-c2nc(N3CCOC[C@@H]3C)cc(C3(S(C)(=O)=O)CCCC3)n2)cc1 [Example 4a, 3-ethyl-1-[4-[4-[(3S)-3-methylmorpholin-4-yl]-6-(1-methylsulfonylcyclopentyl)pyrimidin-2-yl]phenyl]urea]
0.767 | C[C@H]1COCCN1c1cc(C2(S(C)(=O)=O)CCCC2)nc(-c2ccc(NC(=O)NCCO)cc2)n1 [Example 4e, 3-(2-hydroxyethyl)-1-[4-[4-[(3S)-3-methylmorpholin-4-yl]-6-(1-methylsulfonylcyclopentyl)pyrimidin-2-yl]phenyl]urea]
1.46 | CCCNC(=O)Nc1ccc(-c2nc(N3CCOC[C@@H]3C)cc(C3(S(C)(=O)=O)CCCC3)n2)cc1 [Example 4h, 1-[4-[4-[(3S)-3-methylmorpholin-4-yl]-6-(1-methylsulfonylcyclopentyl)pyrimidin-2-yl]phenyl]-3-propyl-urea]
3.79 | C[C@H]1COCCN1c1cc(C2(S(C)(=O)=O)CCCC2)nc(-c2ccc(NC(=O)NCCCO)cc2)n1 [Example 4j, 3-(3-hydroxypropyl)-1-[4-[4-[(3S)-3-methylmorpholin-4-yl]-6-(1-methylsulfonylcyclopentyl)pyrimidin-2-yl]phenyl]urea]
